Columns and labels:
[1] = target: T1, AtINT2 (Arabidopsis thaliana, UniProt Q9C757); experiment: inhibition of arsenic uptake into yeast cells, ICP-MS; format: cell-based; conditions: 250 μM As(III), 0-8 μg/mL myo-inositol, 24 h, 30 °C; substrate competition
T1 sequence (Q9C757 1-580): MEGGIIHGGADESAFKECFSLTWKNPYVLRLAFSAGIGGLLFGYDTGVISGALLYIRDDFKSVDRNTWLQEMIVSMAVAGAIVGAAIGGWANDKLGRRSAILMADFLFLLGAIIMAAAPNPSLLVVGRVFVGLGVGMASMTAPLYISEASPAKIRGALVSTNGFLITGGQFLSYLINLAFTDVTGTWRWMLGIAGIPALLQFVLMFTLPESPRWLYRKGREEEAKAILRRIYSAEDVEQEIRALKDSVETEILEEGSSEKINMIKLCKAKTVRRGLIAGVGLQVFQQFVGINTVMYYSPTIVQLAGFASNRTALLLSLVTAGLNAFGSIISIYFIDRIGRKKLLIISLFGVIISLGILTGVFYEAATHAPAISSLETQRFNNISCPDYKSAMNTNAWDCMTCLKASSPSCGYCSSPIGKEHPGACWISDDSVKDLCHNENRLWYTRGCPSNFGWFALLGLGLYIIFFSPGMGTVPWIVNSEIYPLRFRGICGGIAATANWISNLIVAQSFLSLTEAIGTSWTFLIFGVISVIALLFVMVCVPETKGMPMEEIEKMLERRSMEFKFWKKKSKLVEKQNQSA

[2] = target: T2, AtINT4 (Arabidopsis thaliana, UniProt O23492); experiment: as above; format: cell-based; conditions: 250 μM As(III), 0-8 μg/mL myo-inositol, 24 h, 30 °C; substrate competition
T2 sequence (O23492 1-582): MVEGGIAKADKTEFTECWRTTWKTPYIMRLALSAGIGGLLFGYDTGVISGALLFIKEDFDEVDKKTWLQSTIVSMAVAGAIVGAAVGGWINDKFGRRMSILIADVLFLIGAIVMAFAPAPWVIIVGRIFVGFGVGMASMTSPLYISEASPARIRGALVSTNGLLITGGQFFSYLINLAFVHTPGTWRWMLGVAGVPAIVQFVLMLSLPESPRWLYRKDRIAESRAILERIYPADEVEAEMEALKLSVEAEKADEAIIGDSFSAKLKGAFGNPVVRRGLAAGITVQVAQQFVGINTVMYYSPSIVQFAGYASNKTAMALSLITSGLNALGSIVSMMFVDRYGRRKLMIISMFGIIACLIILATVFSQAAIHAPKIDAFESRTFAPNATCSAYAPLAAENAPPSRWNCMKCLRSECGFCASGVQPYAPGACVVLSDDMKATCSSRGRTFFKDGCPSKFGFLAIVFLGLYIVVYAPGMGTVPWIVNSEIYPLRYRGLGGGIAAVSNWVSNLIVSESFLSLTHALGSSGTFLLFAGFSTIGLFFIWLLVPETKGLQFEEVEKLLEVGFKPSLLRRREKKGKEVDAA

O[C@H]1[C@H](O)[C@@H](O)[C@H](O)[C@@H](O)[C@H]1O [myo-inositol]
inhibition of arsenic uptake into yeast cells, ICP-MS [1]: substrate competition inhibited arsenic accumulation in D458-1B expressing AtINT2 or AtINT4 | inhibition of arsenic uptake into yeast cells, ICP-MS [2]: substrate competition inhibited arsenic accumulation in D458-1B expressing AtINT2 or AtINT4
